Experimental data: patent US8946234B2, “Halogen-substituted compounds” (Bayer CropScience AG, priority 2008, dated 2015)
Read-outs that look alike come from different tables or passages of the source.

Assay: physchem
Format: physicochemical
Conditions: for chromatographic logP: read-out: logP
Description: ^a) Note regarding the determination of the log P values and mass detection: The log P values given were determined in accordance with EEC Directive 79/831 Annex V.A8 by HPLC (High Performance Liquid Chromatography) on a phase inversion column (C18). Agilent 1100 LC system; 50*4.6 Zorbax Eclipse Plus C18 1.8 micron; eluent A: acetonitrile (0.1% formic acid); eluent B: water (0.09% formic acid); linear gradient from 10% acetonitrile to 95% acetonitrile in 4.25 min, then 95% acetonitrile for a further 1.25 min; oven temperature 55° C.; flow: 2.0 ml/min. The mass detection is carried out via an Agilend MSD system.

[1] = HPLC method a), eluent acetonitrile/water with formic acid
[2] = HPLC phase inversion (reversed-phase) C18 column, HPLC method a), eluent acetonitrile/water with formic acid

| SMILES | logP | also measured |
| --- | --- | --- |
| COCN(C(=O)c1c(C(F)(F)F)c(C(F)(F)C(F)(F)F)nn1C)c1ccc(Cl)c(C(=O)NC2CC2)c1 [Ik-135] | 3.51^a) |  |
| Cn1nc(C(F)(F)C(F)(F)F)c(C(F)(F)F)c1C(=O)Nc1cc(F)c(S(C)(=O)=O)c(C(=O)NC2CC2)c1 [Ik-194] | 2.92^a) |  |
| Cn1nc(C(F)(F)OC(F)(F)C(F)(F)OC(F)(F)F)c(Br)c1C(=O)Nc1ccc(Cl)c(C(=O)NC2CC2)c1 [Ik-117] | 4.31^a) |  |
| CSc1c(Br)cc(NC(=O)c2c(C(F)(F)F)c(C(F)(F)C(F)(F)F)nn2C)cc1C(=O)NCc1ccccc1 [Ik-199] | 4.43^a) |  |
| Cn1nc(C(F)(F)C(F)(F)F)c(C(F)(F)F)c1C(=O)Nc1ccc(Br)c(C(=O)NC2CC2)c1 [Ik-175] | 3.39^a) |  |
| Cn1cc(Br)c(C(F)(F)C(F)(F)C(F)(F)F)n1 [4-Bromo-1-methyl-3-heptafluoropropyl-1H-pyrazole] |  | chromatographic logP [1]: 3.53 |
| Cn1nc(C(F)(F)C(F)(F)F)c(C(F)(F)F)c1C(=O)Nc1cc(Br)cc(C(=O)NCC(F)(F)F)c1 [Ik-223] | 4.09^a) |  |
| Cc1nc(C(F)(F)C(F)(F)F)ncc1C(=O)Nc1ccc(Cl)c(C(=O)NC2CC2)c1 [Ib-23] | 2.76^a) |  |
| Cn1nc(-c2ccc(OC(F)(F)F)cc2)c(Br)c1C(=O)Nc1ccc(Cl)c(C(=O)NCC(F)(F)F)c1 [Ik-255] | 4.15^a) |  |
| Cn1ccc(C(F)(F)C(F)(F)C(F)(F)F)n1 [1-Methyl-3-heptafluoropropyl-1H-pyrazole] |  | chromatographic logP [1]: 2.84 |
| O=C(NCC(F)(F)F)c1cc(NC(=O)c2cnc(C(F)(F)C(F)(F)F)nc2C(F)(F)F)ccc1Cl [Ib-9] | 3.53^a) |  |
| C=CCNC(=O)c1cc(NC(=O)c2c(C(F)(F)F)c(C(F)(F)C(F)(F)F)nn2C)ncc1Br [Ik-315] | 3.42^a) |  |
| Cn1nc(C(F)(F)C(F)(F)F)c(C(F)(F)F)c1C(=O)Nc1cc(C(=O)NC2CC2)c(Cl)cc1Cl [Ik-147] | 3.61^a) |  |
| CC(NC(=O)c1cc(NC(=O)c2c(C(F)(F)F)c(C(F)(F)C(F)(F)F)nn2C)ccc1Br)C(F)(F)F (centres unmarked) [Ik-174] | 3.95^a) |  |
| Cn1nc(C(F)(F)C(F)(F)F)c(C(F)(F)F)c1C(=O)Nc1ccc(Br)c(C(=O)NCC(F)(F)F)c1 [Ik-173] | 3.77^a) |  |
| CC(C)NC(=O)c1cc(NC(=O)c2ncc(C(F)(F)F)cc2Cl)ccc1Cl [Ii-2] | 2.73^a) |  |
| Cn1nc(-c2cc(C(F)(F)F)cc(C(F)(F)F)c2)c(C(F)(F)F)c1C(=O)Nc1ccc(Cl)c(C(=O)NCC(F)(F)F)c1 [Ik-258] | 4.46^a) |  |
| Cn1nc(OCC(F)(F)F)c(Br)c1C(=O)Nc1ccc(Cl)c(C(=O)NCC(F)(F)F)c1 [Ik-257] | 3.26^a) |  |
| Cn1nc(C(F)(F)C(F)(F)F)c(I)c1C(=O)Nc1ccc(Cl)c(C(=O)NCC(F)(F)F)c1 [Ik-99] | 3.52^a) |  |
| CSc1c(F)cc(NC(=O)c2c(C(F)(F)F)c(C(F)(F)C(F)(F)F)nn2C)cc1C(=O)NC1CC1 [Ik-191] | 3.57^a) |  |
| Cn1nc(C(F)(F)C(F)(F)F)c(C(F)(F)F)c1C(=O)O [1-Methyl-3-pentafluoroethyl-4-trifluoromethyl-1H-pyrazole-5-carboxylic acid] |  | chromatographic logP [1]: 1.86 |

| SMILES | logP | also measured |
| --- | --- | --- |
| Cn1nc(-c2ccc(Cl)cc2Cl)c(Br)c1C(=O)Nc1ccc(Cl)c(C(=O)NCC(F)(F)F)c1 [Ik-254] | 4.04^a) |  |
| Cn1ccc(C(F)(Cl)C(F)(F)F)n1 (centres unmarked) [1-Methyl-3-(1-chloro-1,2,2,2-tetrafluoroethyl)-1H-pyrazole] |  | chromatographic logP [2]: 2.46 |
| CC(NC(=O)c1cc(NC(=O)c2c(C(F)(F)F)c(C(F)(F)C(F)(F)F)nn2C)ccc1F)C(F)(F)F (centres unmarked) [Ik-161] | 3.89^a) |  |
| Cn1nc(C(F)(F)C(F)(F)F)c(C(F)(F)F)c1C(=O)Nc1cc(C(=O)NCC(F)(F)F)c(Cl)cc1Cl [Ik-171] | 3.97^a) |  |
| Cc1nc(C(F)(F)C(F)(F)F)nc(C)c1C(=O)Nc1ccc(Cl)c(C(=O)NCC=CCl)c1 [Ib-13] | 3.26^a) |  |
| Cn1nc(C(F)(F)C(F)(F)C(F)(F)C(F)(F)F)c(I)c1C(=O)Nc1ccc(Cl)c(C(=O)NC2CC2)c1 [Ik-265] | 3.90^a) |  |
| O=C(NC1CC1)c1cc(NC(=O)c2cnc(C(F)(F)F)nc2C(F)(F)F)ccc1Cl [Ib-3] | 2.78^a) |  |
| Cn1nc(C(F)(F)C(F)(F)F)c(C(F)(F)F)c1C(=O)Nc1cc(C(=O)NCc2ccccc2)c(Cl)cc1F [Ik-142] | 4.00^a) |  |
| Cn1nc(C(F)(F)F)c(Cl)c1C(=O)Nc1ccc(Cl)c(C(=O)NCC(F)(F)F)c1 [Ik-154] | 3.20^a) |  |
| Cn1nc(OCC(F)(F)F)c(Cl)c1C(=O)Nc1ccc(Cl)c(C(=O)NCC(F)(F)F)c1 [Ik-243] | 3.27^a) |  |
| O=C(NC1CC1)c1cc(NC(=O)c2cnc(Cl)cc2C(F)(F)F)ccc1Cl [2-chloro-N-[4-chloro-3-(cyclopropylcarbamoyl)phenyl]-4-(trifluoromethyl)pyridine-5-carboxamide] |  | chromatographic logP [2]: 2.35 |
| CCOC(=O)c1cc(NC(=O)c2nc(C)nc(C(F)(F)C(F)(F)F)c2C(F)(F)F)ccc1Cl [ethyl 2-chloro-5-({[2-methyl-6-(pentafluoroethyl)-5-(trifluoromethyl)pyrimidin-4-yl]-carbonyl}amino)benzoate] |  | chromatographic logP [2]: 4.55 |
| O=C(NCc1ccccc1)c1cc(NC(=O)c2cnc(C(F)(F)C(F)(F)C(F)(F)F)nc2C(F)(F)F)ccc1Cl [Ib-18] | 4.13^a) |  |
| Cn1nc(C(F)(F)F)c(I)c1C(=O)Nc1ccc(Cl)c(C(=O)NC2CC2)c1 [Ik-182] | 2.70^a) |  |
| Cn1nc(C(F)(F)C(F)(F)F)c(C(F)(F)F)c1C(=O)Nc1cc(C#N)c(Cl)c(C(=O)NC2CC2)c1 [Ik-187] | 3.40^a) |  |
| COC(=O)c1cc(N)ncc1Cl [methyl 2-amino-5-chloroisonicotinate] |  | chromatographic logP [2]: 1.3 |
| Cn1nc(C(F)(F)C(F)(F)F)c(C(F)(F)F)c1C(=O)Nc1cc(Cl)c(I)c(C(=O)NCc2ccccc2)c1 [Ik-205] | 4.45^a) |  |
| Cn1nc(C(F)(F)C(F)(F)F)c(C(F)(F)F)c1C(=O)Nc1cc(Cl)cc(C(=O)NC2CC2)c1Cl [Ik-170] | 3.78^a) |  |
| Cn1nc(C(F)(F)C(F)(F)F)c(C(F)(F)F)c1C(=O)Nc1ccc([N+](=O)[O-])c(C(=O)NCC(F)(F)F)c1 [Ik-181] | 3.58^a) |  |
| Cn1nc(C(F)(F)C(F)(F)F)c(C(F)(F)F)c1C(=O)Nc1cc(C(=O)NC2CC2F)c(Cl)cn1 (centres unmarked) [Ik-314] | 3.14^a) |  |
| CCc1c(C(F)(F)C(F)(F)F)nn(C)c1C(=O)Nc1cccc(C(=O)NC2CC2)c1 [Ik-263] | 3.05^a) |  |

| SMILES | logP | also measured |
| --- | --- | --- |
| O=C(NCC=CCl)c1cc(NC(=O)c2cnc(C(F)(F)F)nc2C(F)(F)F)ccc1Cl [Ib-5] | 3.19^a) |  |
| Cn1ccc(C(F)(F)C(F)(F)F)n1 [1-Methyl-3-pentafluoroethyl-1H-pyrazole] |  | chromatographic logP [2]: 2.29 |
| Cn1nc(C(F)(F)C(F)(F)F)c(C(F)(F)F)c1C(=O)Nc1cc(F)cc(C(=O)NCc2ccccc2)c1 [Ik-162] | 4.05^a) |  |
| Cc1nc(C(=O)Nc2ccc(Cl)c(C(=O)NC3CC3)c2)c(C(F)(F)F)c(C(F)(F)C(F)(F)F)n1 [Ia-1, N-[4-Chloro-3-(cyclopropylcarbamoyl)phenyl]-2-methyl-6-(pentafluoroethyl)-5-(trifluoromethyl)pyrimidine-4-carboxamide] |  | chromatographic logP [2]: 3.33 |
| COC(=O)c1c(Cl)cnc(N)c1Cl [methyl 2-amino-3,5-dichloroisonicotinate] |  | chromatographic logP [2]: 1.75 |
| CCN(CC)C(=O)COC(=O)c1cc(NC(=O)c2c(C(F)(F)F)c(C(F)(F)C(F)(F)F)nn2C)ccc1Cl [Ik-109] | 4.11^a) |  |
| O=C(NC1CC1)c1cc(NC(=O)c2cnc(C(F)(F)C(F)(F)F)nc2C(F)(F)C(F)(F)F)ccc1Cl [Ib-33] | 3.64^a) |  |
| Cn1nc(C(F)(F)C(F)(F)F)c(C(F)(F)F)c1C(=O)Nc1ccc(F)c(C(=O)NCc2ccccc2)c1 [Ik-157] | 3.95^a) |  |
| Cn1nc(C(F)(F)C(F)(F)F)c(C(F)(F)F)c1C(=O)Nc1ccc(Br)c(C(=O)N[C@@H]2C[C@@H]2F)n1 [Ik-127, N-{3-Bromo[2-(1R,2S)-2-fluorocycloprop-1-ylcarbamoyl]pyrid-6-yl}-1-methyl-3-(pentafluoroethyl)-4-(trifluoromethyl)-1H-pyrazole-5-carboxamide] |  | chromatographic logP [2]: 3.29; chromatographic logP (HPLC phase inversion (reversed-phase) C18 column, HPLC on C18 phase inversion column, method a)): 3.29 |
| Cn1nc(OC(F)F)c(Cl)c1C(=O)Nc1ccc(Cl)c(C(=O)NCC(F)(F)F)c1 [Ik-239] | 2.89^a) |  |
| Cn1nc(-c2ccc(Cl)cc2Cl)c(Br)c1C(=O)Nc1ccc(Cl)c(C(=O)NC2CC2)c1 [Ik-250] | 3.59^a) |  |
| Cc1nc(C(F)(F)C(F)(F)F)ncc1C(=O)O [4-Methyl-2-(pentafluoroethyl)pyrimidine-5-carboxylic acid] |  | chromatographic logP [2]: 1.97 |
| Cn1nc(C(F)(F)C(F)(F)F)c(C(F)(F)F)c1C(=O)Nc1cccc(C(=O)NCc2ccccc2)c1 [Ik-14] | 3.77^a) |  |
| Cn1nc(C(F)(F)C(F)(F)F)c(C(F)(F)F)c1C(=O)Nc1ccc2c(c1)C(=O)OC2 [Ik-106] | 3.20^a) |  |
| Cn1nc(C(F)(F)C(F)(F)F)c(C(F)(F)F)c1C(=O)Nc1cc(F)c(F)c(C(=O)NCC(F)(F)F)c1 [Ik-141] | 3.89^a) |  |
| Cn1nc(C(F)(F)F)c(C(F)(F)F)c1C(=O)Nc1ccc(Cl)c(C(=O)NC2CC2)c1 [Ik-195] | 2.89^a) |  |
| CN(C)C(=O)COC(=O)c1cc(NC(=O)c2c(C(F)(F)F)c(C(F)(F)C(F)(F)F)nn2C)ccc1Cl [Ik-108] | 3.57^a) |  |
| Cn1nc(C(F)(F)C(F)(F)C(F)(F)F)c(Br)c1C(=O)O [4-Bromo-1-methyl-3-heptafluoropropyl-1H-pyrazole-5-carboxylic acid] |  | chromatographic logP [1]: 2.26 |
| Cn1nc(C(F)(F)C(F)(F)C(F)(F)C(F)(F)F)c(I)c1C(=O)Nc1ccc(Cl)c(C(=O)NCC=CCl)c1 [Ik-269] | 4.27^a) |  |
